Test results taken from the kinase profiling compilation of Christmann-Franck et al. (2016).

Experiments:
Test in all cases: radiometric filter-binding kinase assay
AURKA (human) = AURKA (human) (UniProt O14965)
AURKB (human) = AURKB (human) (UniProt Q96GD4)
BRSK1 (human) = BRSK1 (human) (UniProt Q8TDC3)
BTK (human) = BTK (human) (UniProt Q06187)
CDK2 CCNA2 (human) = CDK2 CCNA2 (human) (UniProt P20248+P24941)
CHEK1 (human) = CHEK1 (human) (UniProt O14757)
CSNK2A1 (human) = CSNK2A1 (human) (UniProt P68400)
DYRK2 (human) = DYRK2 (human) (UniProt Q92630)
EEF2K (human) = EEF2K (human) (UniProt O00418)
EPHA2 (human) = EPHA2 (human) (UniProt P29317)
ERBB4 (human) = ERBB4 (human) (UniProt Q15303)
FLT1 (human) = FLT1 (human) (UniProt P17948)
GCK (human) = GCK (human) (UniProt Q12851)
INSRR (human) = INSRR (human) (UniProt P14616); settings: compound 1.0 µM
MAP2K2 (human) = MAP2K2 (human) (UniProt P36507)
MAP2K6 (human) = MAP2K6 (human) (UniProt P52564)
MAPK10 (human) = MAPK10 (human) (UniProt P53779); settings: compound 1.0 µM
MAPK12 (human) = MAPK12 (human) (UniProt P53778)
MAPK15 (human) = MAPK15 (human) (UniProt Q8TD08)
MAPKAPK3 (human) = MAPKAPK3 (human) (UniProt Q16644)
MAPKAPK5 (human) = MAPKAPK5 (human) (UniProt Q8IW41)
MELK (human) = MELK (human) (UniProt Q14680)
MINK1 (human) = MINK1 (human) (UniProt Q8N4C8)
MST4 (human) = MST4 (human) (UniProt Q9P289)
[1] = system: PAK2 (human), Q13177 [T402E]
PHKG1 (human) = PHKG1 (human) (UniProt Q16816)
PIM2 (human) = PIM2 (human) (UniProt Q9P1W9)
PIM3 (human) = PIM3 (human) (UniProt Q86V86)
PRKACA (human) = PRKACA (human) (UniProt P17612)
PRKCA (human) = PRKCA (human) (UniProt P17252)
RIPK2 (human) = RIPK2 (human) (UniProt O43353)
RPS6KA3 KD1 KD2 (human) = RPS6KA3 KD1 KD2 (human) (UniProt P51812)
[2] = system: SGK1 (human), O00141 [S422D]
SRPK1 (human) = SRPK1 (human) (UniProt Q96SB4)

Sequence of MAPK12 (human) (P53778 whole entry, looked up): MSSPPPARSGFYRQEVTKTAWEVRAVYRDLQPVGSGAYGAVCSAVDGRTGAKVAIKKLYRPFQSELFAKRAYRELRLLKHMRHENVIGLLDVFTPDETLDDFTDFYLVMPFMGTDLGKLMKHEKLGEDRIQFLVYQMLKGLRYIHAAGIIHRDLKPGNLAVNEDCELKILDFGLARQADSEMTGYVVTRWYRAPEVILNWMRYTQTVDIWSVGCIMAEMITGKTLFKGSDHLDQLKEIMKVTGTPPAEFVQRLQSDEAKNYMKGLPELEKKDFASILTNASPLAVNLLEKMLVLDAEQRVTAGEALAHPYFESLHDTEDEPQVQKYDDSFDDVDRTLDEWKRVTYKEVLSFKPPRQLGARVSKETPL
Sequence of MINK1 (human) (Q8N4C8 whole entry, looked up): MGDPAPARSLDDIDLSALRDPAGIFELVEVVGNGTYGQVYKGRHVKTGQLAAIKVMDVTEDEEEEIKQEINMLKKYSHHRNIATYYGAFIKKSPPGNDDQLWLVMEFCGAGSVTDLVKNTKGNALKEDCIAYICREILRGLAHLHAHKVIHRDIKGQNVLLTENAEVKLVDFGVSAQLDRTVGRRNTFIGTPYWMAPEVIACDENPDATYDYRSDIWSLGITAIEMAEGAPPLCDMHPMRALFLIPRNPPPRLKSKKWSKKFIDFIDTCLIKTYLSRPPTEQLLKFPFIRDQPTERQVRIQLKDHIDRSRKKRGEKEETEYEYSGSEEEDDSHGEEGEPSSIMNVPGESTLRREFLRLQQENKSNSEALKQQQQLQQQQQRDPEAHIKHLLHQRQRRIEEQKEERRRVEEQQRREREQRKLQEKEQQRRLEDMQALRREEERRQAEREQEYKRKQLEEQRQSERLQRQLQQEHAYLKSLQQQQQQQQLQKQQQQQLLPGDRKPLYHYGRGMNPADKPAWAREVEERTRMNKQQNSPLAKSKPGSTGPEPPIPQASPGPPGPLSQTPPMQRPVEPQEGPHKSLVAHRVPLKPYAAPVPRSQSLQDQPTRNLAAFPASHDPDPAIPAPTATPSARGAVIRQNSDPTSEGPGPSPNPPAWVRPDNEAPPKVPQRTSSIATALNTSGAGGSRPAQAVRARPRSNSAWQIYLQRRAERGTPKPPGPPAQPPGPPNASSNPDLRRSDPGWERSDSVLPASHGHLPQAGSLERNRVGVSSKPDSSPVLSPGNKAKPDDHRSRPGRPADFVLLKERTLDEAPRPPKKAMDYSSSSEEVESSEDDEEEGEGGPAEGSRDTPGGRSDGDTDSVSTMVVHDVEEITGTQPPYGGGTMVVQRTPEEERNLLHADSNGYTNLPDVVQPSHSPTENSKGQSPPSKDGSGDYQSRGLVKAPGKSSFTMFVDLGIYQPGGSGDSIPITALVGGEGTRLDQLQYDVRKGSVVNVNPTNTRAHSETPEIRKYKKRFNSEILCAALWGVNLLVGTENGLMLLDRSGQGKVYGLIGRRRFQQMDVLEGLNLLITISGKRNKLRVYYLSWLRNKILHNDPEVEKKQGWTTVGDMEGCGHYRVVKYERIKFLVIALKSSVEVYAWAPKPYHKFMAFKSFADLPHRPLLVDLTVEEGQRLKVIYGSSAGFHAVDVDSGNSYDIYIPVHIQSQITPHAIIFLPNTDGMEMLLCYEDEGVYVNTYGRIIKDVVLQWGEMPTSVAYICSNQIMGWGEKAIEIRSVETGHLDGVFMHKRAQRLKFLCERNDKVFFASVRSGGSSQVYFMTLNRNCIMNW
Sequence of RIPK2 (human) (O43353 whole entry, looked up): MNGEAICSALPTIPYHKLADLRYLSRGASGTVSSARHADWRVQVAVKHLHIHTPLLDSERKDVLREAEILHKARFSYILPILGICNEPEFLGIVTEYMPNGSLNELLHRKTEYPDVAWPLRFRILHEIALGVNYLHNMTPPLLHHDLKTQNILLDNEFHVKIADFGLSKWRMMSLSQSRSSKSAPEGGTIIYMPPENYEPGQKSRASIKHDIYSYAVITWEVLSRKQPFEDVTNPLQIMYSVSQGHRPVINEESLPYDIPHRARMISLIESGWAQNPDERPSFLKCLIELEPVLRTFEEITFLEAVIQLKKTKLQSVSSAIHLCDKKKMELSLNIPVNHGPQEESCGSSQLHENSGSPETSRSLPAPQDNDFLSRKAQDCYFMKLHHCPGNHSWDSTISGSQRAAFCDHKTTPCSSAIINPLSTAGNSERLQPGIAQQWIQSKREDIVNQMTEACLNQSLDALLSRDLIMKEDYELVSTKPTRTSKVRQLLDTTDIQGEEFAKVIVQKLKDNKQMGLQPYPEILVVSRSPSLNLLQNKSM
Sequence of BTK (human) (Q06187 whole entry, looked up): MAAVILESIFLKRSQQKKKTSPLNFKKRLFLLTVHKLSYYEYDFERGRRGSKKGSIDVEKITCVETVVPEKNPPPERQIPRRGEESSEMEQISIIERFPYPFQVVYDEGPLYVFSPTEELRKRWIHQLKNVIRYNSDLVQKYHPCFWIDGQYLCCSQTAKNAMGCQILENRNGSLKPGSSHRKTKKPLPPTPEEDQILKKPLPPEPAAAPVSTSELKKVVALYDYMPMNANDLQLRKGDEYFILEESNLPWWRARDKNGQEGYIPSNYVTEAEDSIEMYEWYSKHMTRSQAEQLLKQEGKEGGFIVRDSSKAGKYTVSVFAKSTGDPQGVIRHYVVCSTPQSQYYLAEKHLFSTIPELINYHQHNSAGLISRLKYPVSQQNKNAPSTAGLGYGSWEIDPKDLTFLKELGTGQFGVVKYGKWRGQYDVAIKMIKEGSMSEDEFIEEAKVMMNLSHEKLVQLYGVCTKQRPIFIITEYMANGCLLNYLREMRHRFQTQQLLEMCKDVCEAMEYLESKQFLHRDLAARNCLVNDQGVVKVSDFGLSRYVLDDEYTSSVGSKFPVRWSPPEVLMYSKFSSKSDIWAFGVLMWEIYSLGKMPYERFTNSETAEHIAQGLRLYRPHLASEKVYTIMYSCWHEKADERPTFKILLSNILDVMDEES
Sequence of SGK1 (human), O00141 [S422D] (O00141 whole entry S422D, looked up): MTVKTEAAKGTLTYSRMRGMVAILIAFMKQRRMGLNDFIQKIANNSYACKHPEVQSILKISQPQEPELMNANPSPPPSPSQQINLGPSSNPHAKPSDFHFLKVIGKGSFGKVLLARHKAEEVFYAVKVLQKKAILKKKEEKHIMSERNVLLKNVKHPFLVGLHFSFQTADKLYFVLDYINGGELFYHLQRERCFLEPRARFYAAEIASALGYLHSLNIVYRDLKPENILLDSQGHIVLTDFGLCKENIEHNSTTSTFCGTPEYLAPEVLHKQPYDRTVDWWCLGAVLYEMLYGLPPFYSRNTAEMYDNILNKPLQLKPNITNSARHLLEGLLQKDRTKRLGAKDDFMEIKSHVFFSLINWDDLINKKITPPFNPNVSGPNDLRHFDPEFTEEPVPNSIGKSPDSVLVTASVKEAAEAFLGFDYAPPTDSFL
Sequence of BRSK1 (human) (Q8TDC3 whole entry, looked up): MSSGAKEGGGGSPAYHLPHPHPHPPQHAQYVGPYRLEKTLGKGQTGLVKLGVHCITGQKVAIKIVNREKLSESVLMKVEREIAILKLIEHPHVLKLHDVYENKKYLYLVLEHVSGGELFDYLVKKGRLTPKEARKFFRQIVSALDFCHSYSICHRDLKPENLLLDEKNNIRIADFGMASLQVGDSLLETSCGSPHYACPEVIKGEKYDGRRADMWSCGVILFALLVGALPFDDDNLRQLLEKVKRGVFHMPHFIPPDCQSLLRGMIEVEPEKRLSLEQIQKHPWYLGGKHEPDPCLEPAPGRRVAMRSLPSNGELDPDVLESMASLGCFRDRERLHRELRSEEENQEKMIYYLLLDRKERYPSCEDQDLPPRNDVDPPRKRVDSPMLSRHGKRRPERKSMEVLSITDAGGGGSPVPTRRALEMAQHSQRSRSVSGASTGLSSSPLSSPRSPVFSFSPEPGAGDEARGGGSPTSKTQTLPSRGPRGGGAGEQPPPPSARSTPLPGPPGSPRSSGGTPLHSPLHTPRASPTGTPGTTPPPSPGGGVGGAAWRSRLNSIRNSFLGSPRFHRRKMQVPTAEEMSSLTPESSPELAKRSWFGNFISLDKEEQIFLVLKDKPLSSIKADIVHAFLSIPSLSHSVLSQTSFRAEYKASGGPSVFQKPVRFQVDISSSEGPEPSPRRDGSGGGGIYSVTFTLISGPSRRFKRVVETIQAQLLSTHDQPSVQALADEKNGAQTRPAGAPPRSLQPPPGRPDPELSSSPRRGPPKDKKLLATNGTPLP
Sequence of AURKB (human) (Q96GD4 whole entry, looked up): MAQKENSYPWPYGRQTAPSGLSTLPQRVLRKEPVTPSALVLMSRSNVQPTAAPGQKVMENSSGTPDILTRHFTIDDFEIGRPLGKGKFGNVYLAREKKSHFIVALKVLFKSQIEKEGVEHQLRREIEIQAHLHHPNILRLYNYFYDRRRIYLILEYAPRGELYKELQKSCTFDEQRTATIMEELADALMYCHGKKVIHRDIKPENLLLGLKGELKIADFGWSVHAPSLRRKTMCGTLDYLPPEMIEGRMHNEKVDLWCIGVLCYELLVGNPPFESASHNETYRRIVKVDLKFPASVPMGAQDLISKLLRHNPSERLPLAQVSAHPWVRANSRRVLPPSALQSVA
Sequence of AURKA (human) (O14965 whole entry, looked up): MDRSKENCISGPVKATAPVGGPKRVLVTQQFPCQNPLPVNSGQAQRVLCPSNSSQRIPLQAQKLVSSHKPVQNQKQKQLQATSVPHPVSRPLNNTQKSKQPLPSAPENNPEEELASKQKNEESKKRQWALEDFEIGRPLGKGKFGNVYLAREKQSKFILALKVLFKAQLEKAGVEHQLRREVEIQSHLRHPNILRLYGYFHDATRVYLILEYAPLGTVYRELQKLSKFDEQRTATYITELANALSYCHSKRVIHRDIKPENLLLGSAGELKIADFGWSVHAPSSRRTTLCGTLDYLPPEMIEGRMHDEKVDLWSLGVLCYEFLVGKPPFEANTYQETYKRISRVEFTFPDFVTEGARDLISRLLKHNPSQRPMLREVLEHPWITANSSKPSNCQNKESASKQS

residual activity (AURKA (human); compound 1.0 µM): 103%
residual activity (AURKA (human); compound 10.0 µM): 104%
residual activity (AURKB (human); compound 1.0 µM): 99%
residual activity (AURKB (human); compound 10.0 µM): 78%
residual activity (BRSK1 (human); compound 1.0 µM): 98%
residual activity (BRSK1 (human); compound 10.0 µM): 101%
residual activity (BTK (human); compound 1.0 µM): 102%
residual activity (BTK (human); compound 10.0 µM): 97%
residual activity (CDK2 CCNA2 (human); compound 1.0 µM): 95%
residual activity (CDK2 CCNA2 (human); compound 10.0 µM): 97%
residual activity (CHEK1 (human); compound 1.0 µM): 116%
residual activity (CHEK1 (human); compound 10.0 µM): 119%
residual activity (CSNK2A1 (human); compound 1.0 µM): 111%
residual activity (CSNK2A1 (human); compound 10.0 µM): 98%
residual activity (DYRK2 (human); compound 1.0 µM): 107%
residual activity (DYRK2 (human); compound 10.0 µM): 111%
residual activity (EEF2K (human); compound 1.0 µM): 84%
residual activity (EEF2K (human); compound 10.0 µM): 92%
residual activity (EPHA2 (human); compound 1.0 µM): 112%
residual activity (EPHA2 (human); compound 10.0 µM): 105%
residual activity (ERBB4 (human); compound 1.0 µM): 86%
residual activity (ERBB4 (human); compound 10.0 µM): 82%
residual activity (FLT1 (human); compound 1.0 µM): 98%
residual activity (FLT1 (human); compound 10.0 µM): 42%
residual activity (GCK (human); compound 1.0 µM): 79%
residual activity (GCK (human); compound 10.0 µM): 91%
residual activity (INSRR (human)): 84%
residual activity (MAP2K2 (human); compound 1.0 µM): 55%
residual activity (MAP2K2 (human); compound 10.0 µM): 23%
residual activity (MAP2K6 (human); compound 1.0 µM): 90%
residual activity (MAP2K6 (human); compound 10.0 µM): 67%
residual activity (MAPK10 (human)): 83%
residual activity (MAPK12 (human); compound 1.0 µM): 80%
residual activity (MAPK12 (human); compound 10.0 µM): 96%
residual activity (MAPKAPK3 (human); compound 1.0 µM): 94%
residual activity (MAPKAPK3 (human); compound 10.0 µM): 77%
residual activity (MAPKAPK5 (human); compound 1.0 µM): 93%
residual activity (MAPKAPK5 (human); compound 10.0 µM): 100%
residual activity (MELK (human); compound 1.0 µM): 109%
residual activity (MELK (human); compound 10.0 µM): 106%
residual activity (MINK1 (human); compound 1.0 µM): 119%
residual activity (MINK1 (human); compound 10.0 µM): 127%
residual activity (MST4 (human); compound 1.0 µM): 107%
residual activity (MST4 (human); compound 10.0 µM): 94%
residual activity ([1]; compound 1.0 µM): 95%
residual activity ([1]; compound 10.0 µM): 80%
residual activity (PHKG1 (human); compound 1.0 µM): 94%
residual activity (PHKG1 (human); compound 10.0 µM): 90%
residual activity (PIM2 (human); compound 1.0 µM): 91%
residual activity (PIM2 (human); compound 10.0 µM): 93%
residual activity (PIM3 (human); compound 1.0 µM): 94%
residual activity (PIM3 (human); compound 10.0 µM): 65%
residual activity (PRKACA (human); compound 1.0 µM): 94%
residual activity (PRKACA (human); compound 10.0 µM): 103%
residual activity (PRKCA (human); compound 1.0 µM): 93%
residual activity (PRKCA (human); compound 10.0 µM): 86%
residual activity (RIPK2 (human); compound 1.0 µM): 86%
residual activity (RIPK2 (human); compound 10.0 µM): 84%
residual activity (RPS6KA3 KD1 KD2 (human); compound 1.0 µM): 98%
residual activity (RPS6KA3 KD1 KD2 (human); compound 10.0 µM): 89%
residual activity ([2]; compound 1.0 µM): 71%
residual activity ([2]; compound 10.0 µM): 111%
residual activity (SRPK1 (human); compound 1.0 µM): 95%
residual activity (SRPK1 (human); compound 10.0 µM): 86%
SMILES: O=C(NOCC(O)CO)c1ccc(F)c(F)c1Nc1ccc(I)cc1Cl (stereo unspecified)
residual activity (MAPK15 (human); compound 1.0 µM): 95%
residual activity (MAPK15 (human); compound 10.0 µM): 98%
